# Test results: patent US8957022B2, “Multimeric tie 2 agonists and uses thereof in stimulating angiogenesis” (Sunnybrook Health Sciences Centre, priority 2006, dated 2015)
# Columns and labels:
# [1] = test system: CD1 mice; format: in vivo; details: 50 μg intravenously, peripheral blood 24 hours post injection
# Experimental: In this example, the effect of systemically administered Vasculotide on circulating endothelial cells was examined. Three month old CD1 mice were injected intravenously with either PBS (vehicle) or 50 μg of clustered Vasculotide. Twenty four hours post injection, peripheral blood was collected on heparin via cardiac puncture and nonhematopoietic circulating endothelial cells (CECs) were sorted using a four channel FACS approach. CECs were defined as CD13^+/VEGFR-2^+/CD45^−, Viable (propidium iodide). Cell numbers reported are number of viable cells/μl of peripheral blood. Total white blood cell count was also determined using a hemocytometer.
# [2] = test system: MAPK, AKT and eNOS; experiment: Phosphorylation of downstream signalling proteins in HUVEC (immunoblot); format: cell-based, human
# Experimental: Having established that Vasculotide was able to bind Tie 2 (see Example 2), the ability of Vasculotide, when clustered with avidin in a 4:1 ratio (Vasculotide:avidin), to activate the Tie 2 receptor was tested by examining several well established downstream signalling pathways in human umbilical vein endothelial cells (HUVEC) (Cambrex, N.J.). Such signalling pathways are described in, for example, Kim, I. et al. (2000) Circ. Res. 9:952-959; Fujikawa, K. et al. (1999) Exp. Cell. Res. 2:663-672; Babaei, S. et al. (2003) Am. J. Pathol. 6:1927-1936.
# HUVEC were grown on 6-well or 10 cm plates (Nunc) coated with gelatin (Sigma). HUVEC were cultured in F12 growth medium containing 10% fetal bovine serum (FBS), 0.1 mg/ml heparin sulphate, 1× penicillin, 1× streptomycin, 1× glutamine, VEGF 10 ng/ml, EGF 10 ng/ml, bFGF 5 ng/ml. All HUVEC were used between passage 3-9.
# HUVEC were stimulated with one of either Ang 1 (R&D Systems), Vasculotide, avidin or clustered Vasculotide (preclustered with a 4:1 molar ratio of peptide:avidin in PBS for 2 hours at 4° C.) at various doses. Stimulations with Vasculotide were performed in full serum containing growth media for 15 minutes unless otherwise indicated. Cell lysate preparations and immunoblot analysis were performed by standard methods. […]
# [3] = test system: focal adhesion kinase (FAK); experiment: FAK activation in HUVEC (pY397 FAK immunoblot); format: cell-based, human; details: time course
# Experimental: HUVEC were stimulated with one of either Ang 1 (R&D Systems), Vasculotide, avidin or clustered Vasculotide (preclustered with a 4:1 molar ratio of peptide:avidin in PBS for 2 hours at 4° C.) at various doses. Stimulations with Vasculotide were performed in full serum containing growth media for 15 minutes unless otherwise indicated. Cell lysate preparations and immunoblot analysis were performed by standard methods. Antibodies used for immunoblotting (in this and/or subsequent Examples) were monoclonal anti Tie 2 (Pharminogen), polyclonal anti pY992 Tie 2, (Cell Signaling Technology), polyclonal anti MAPK (Cell Signaling Technology), monoclonal anti phospho MAPK (Cell Signaling Technology), polyclonal anti AKT (Cell Signaling Technology), polyclonal anti pS473 AKT (Cell Signaling Technology), monoclonal anti pS1177 eNOS (BD Biosciences), polyclonal anti pY397 FAK (Biosource), polyclonal anti FAK (Santa Cruz), polyclonal anti smooth muscle actin-Cy3 direct conjugate (Dako), polyclonal anti PECAM (Pharminogen) and polyclonal anti smooth muscle actin (Sigma).
# To examine Tie 2 activation kinetics, HUVEC were stimulated with native Ang 1 or clustered Vasculotide for various times. Stimulation was performed in 10% FBS. […]
Substance,Number of circulating endothelial cells [1],pMAPK and pAKT in the time course ([2]; 10% FBS),"Phosphorylation of Tie 2-responsive proteins MAPK, AKT and eNOS ([2]; coincident with receptor activation)",Activation of FAK [3]
Vasculotide: biotinylated T7 peptide-PEG: Cys-His-His-His-Arg-His-Ser-Phe (SEQ ID NO: 2) conjugated to EZ-link-PEO-maleimide-biotin,decrease in the number of circulating endothelial cells,–,–,–
"clustered Vasculotide: Vasculotide clustered with avidin in a 4:1 ratio, an obligate tetrameric compound",–,marked increases in pMAPK and pAKT,"phosphorylation of several known Tie 2-responsive proteins including MAPK, AKT and eNOS, was observed",no significant effect
